Source: ChEMBL document CHEMBL4011590, “Structure-activity relationship studies on 3,5-dinitrophenyl tetrazoles as antitubercular agents” (Eur J Med Chem, 2017)
≈ marks a conversion by molar mass, not a printed value.

Legend:
[1] = system: Klebsiella pneumoniae; test: Antibacterial activity against Klebsiella pneumoniae HK11750/08 after 48 hrs by broth microdilution method; assay type: functional; details: HK11750/08, 48 h
[2] = system: Staphylococcus epidermidis; test: Antibacterial activity against Staphylococcus epidermidis HK6966/08 after 24 hrs by broth microdilution method; assay type: functional; details: HK6966/08, 24 h
[3] = system: Aspergillus fumigatus; test: Antifungal activity against Aspergillus fumigatus 231 after 24 hrs by broth microdilution method; assay type: functional; details: Aspergillus fumigatus, 231, 24 h
[4] = system: Enterococcus sp.; test: Antibacterial activity against Enterococcus sp. HK14365/08 after 24 hrs by broth microdilution method; assay type: functional; details: HK14365/08, 24 h
[5] = system: Trichosporon asahii; test: Antifungal activity against Trichosporon asahii 1188 after 48 hrs by broth microdilution method; assay type: functional; details: Trichosporon asahii, 1188, 48 h
[6] = system: Staphylococcus aureus; test: Antibacterial activity against methicillin-resistant Staphylococcus aureus HK5996/08 after 24 hrs by broth microdilution method; assay type: functional; details: HK5996/08, 24 h
[7] = system: Mycobacterium avium; test: Antimycobacterial activity against Mycobacterium avium CNCTC My 330/80 after 14 days by micromethod; assay type: functional; details: CNCTC My 330/80, 336 h
[8] = system: Trichosporon asahii; test: Antifungal activity against Trichosporon asahii 1188 after 24 hrs by broth microdilution method; assay type: functional; details: Trichosporon asahii, 1188, 24 h
[9] = system: Staphylococcus aureus; test: Antibacterial activity against Staphylococcus aureus ATCC 6538 after 48 hrs by broth microdilution method; assay type: functional; details: ATCC 6538, 48 h
[10] = system: Lichtheimia corymbifera; test: Antifungal activity against Absidia corymbifera 272 after 48 hrs by broth microdilution method; assay type: functional; details: Lichtheimia corymbifera, 272, 48 h
[11] = system: Pseudomonas aeruginosa; test: Antibacterial activity against Pseudomonas aeruginosa ATCC 9027 after 24 hrs by broth microdilution method; assay type: functional; details: ATCC 9027, 24 h
[12] = system: Mycobacterium tuberculosis; test: Antimycobacterial activity against Mycobacterium tuberculosis H37Rv CNCTC My 331/88 after 21 days by micromethod; assay type: functional; details: H37Rv CNCTC My 331/88, 504 h
[13] = system: Pseudomonas aeruginosa; test: Antibacterial activity against Pseudomonas aeruginosa ATCC 9027 after 48 hrs by broth microdilution method; assay type: functional; details: ATCC 9027, 48 h
[14] = system: Mycobacterium avium; test: Antimycobacterial activity against Mycobacterium avium CNCTC My 330/80 after 21 days by micromethod; assay type: functional; details: CNCTC My 330/80, 504 h
[15] = system: Nakaseomyces glabratus; test: Antifungal activity against Candida glabrata 20/I after 48 hrs by broth microdilution method; assay type: functional
[16] = system: Klebsiella pneumoniae; test: Antibacterial activity against extended spectrum beta-lactamase producing Klebsiella pneumoniae HK14368/08 after 24 hrs by broth microdilution method; assay type: functional; details: HK14368/08, 24 h
[17] = system: Mycobacterium kansasii; test: Antimycobacterial activity against Mycobacterium kansasii isolate 6509/96 after 7 days by micromethod; assay type: functional; details: isolate 6509/96, 168 h
[18] = system: Candida albicans; test: Antifungal activity against Candida albicans ATCC 44859 after 48 hrs by broth microdilution method; assay type: functional; details: ATCC 44859, 48 h
[19] = system: Klebsiella pneumoniae; test: Antibacterial activity against Klebsiella pneumoniae HK11750/08 after 24 hrs by broth microdilution method; assay type: functional; details: HK11750/08, 24 h
[20] = system: Escherichia coli; test: Antibacterial activity against Escherichia coli ATCC 8739 after 48 hrs by broth microdilution method; assay type: functional; details: ATCC 8739, 48 h
[21] = system: Escherichia coli; test: Antibacterial activity against Escherichia coli ATCC 8739 after 24 hrs by broth microdilution method; assay type: functional; details: ATCC 8739, 24 h
[22] = system: Candida albicans; test: Antifungal activity against Candida albicans ATCC 44859 after 24 hrs by broth microdilution method; assay type: functional; details: ATCC 44859, 24 h
[23] = system: Klebsiella pneumoniae; test: Antibacterial activity against extended spectrum beta-lactamase producing Klebsiella pneumoniae HK14368/08 after 48 hrs by broth microdilution method; assay type: functional; details: HK14368/08, 48 h
[24] = system: Mycobacterium tuberculosis; test: Antimycobacterial activity against Mycobacterium tuberculosis H37Rv CNCTC My 331/88 after 14 days by micromethod; assay type: functional; details: H37Rv CNCTC My 331/88, 336 h
[25] = system: Enterococcus sp.; test: Antibacterial activity against Enterococcus sp. HK14365/08 after 48 hrs by broth microdilution method; assay type: functional; details: HK14365/08, 48 h
[26] = system: Staphylococcus epidermidis; test: Antibacterial activity against Staphylococcus epidermidis HK6966/08 after 48 hrs by broth microdilution method; assay type: functional; details: HK6966/08, 48 h
[27] = system: Aspergillus fumigatus; test: Antifungal activity against Aspergillus fumigatus 231 after 48 hrs by broth microdilution method; assay type: functional; details: Aspergillus fumigatus, 231, 48 h
[28] = system: Staphylococcus aureus; test: Antibacterial activity against Staphylococcus aureus ATCC 6538 after 24 hrs by broth microdilution method; assay type: functional; details: ATCC 6538, 24 h
[29] = system: Trichophyton mentagrophytes; test: Antifungal activity against Trichophyton mentagrophytes 445 after 72 hrs by broth microdilution method; assay type: functional; details: Trichophyton mentagrophytes, 445, 72 h
[30] = system: Mycobacterium kansasii; test: Antimycobacterial activity against Mycobacterium kansasii CNCTC My 235/80 after 7 days by micromethod; assay type: functional; details: CNCTC My 235/80, 168 h
[31] = system: Candida tropicalis; test: Antifungal activity against Candida tropicalis 156 after 24 hrs by broth microdilution method; assay type: functional; details: Candida tropicalis, 156, 24 h
[32] = system: Candida tropicalis; test: Antifungal activity against Candida tropicalis 156 after 48 hrs by broth microdilution method; assay type: functional; details: Candida tropicalis, 156, 48 h
[33] = system: Mycobacterium kansasii; test: Antimycobacterial activity against Mycobacterium kansasii CNCTC My 235/80 after 14 days by micromethod; assay type: functional; details: CNCTC My 235/80, 336 h
[34] = system: Lichtheimia corymbifera; test: Antifungal activity against Absidia corymbifera 272 after 24 hrs by broth microdilution method; assay type: functional; details: Lichtheimia corymbifera, 272, 24 h
[35] = system: Mycobacterium kansasii; test: Antimycobacterial activity against Mycobacterium kansasii isolate 6509/96 after 21 days by micromethod; assay type: functional; details: isolate 6509/96, 504 h
[36] = system: Trichophyton mentagrophytes; test: Antifungal activity against Trichophyton mentagrophytes 445 after 120 hrs by broth microdilution method; assay type: functional; details: Trichophyton mentagrophytes, 445, 120 h
[37] = system: Staphylococcus aureus; test: Antibacterial activity against methicillin-resistant Staphylococcus aureus HK5996/08 after 48 hrs by broth microdilution method; assay type: functional; details: HK5996/08, 48 h
[38] = system: Mycobacterium kansasii; test: Antimycobacterial activity against Mycobacterium kansasii isolate 6509/96 after 14 days by micromethod; assay type: functional; details: isolate 6509/96, 336 h
[39] = system: Pichia kudriavzevii; test: Antifungal activity against Candida krusei E28 after 24 hrs by broth microdilution method; assay type: functional; details: E28, 24 h
[40] = system: Nakaseomyces glabratus; test: Antifungal activity against Candida glabrata 20/I after 24 hrs by broth microdilution method; assay type: functional
[41] = system: CHO-K1; test: Cytotoxicity against CHOK1 cells after 24 hrs by MTT assay; assay type: cell-based; details: Cricetulus griseus, CHO-K1, 24 h
[42] = system: Mycobacterium kansasii; test: Antimycobacterial activity against Mycobacterium kansasii CNCTC My 235/80 after 21 days by micromethod; assay type: functional; details: CNCTC My 235/80, 504 h
[43] = system: Pichia kudriavzevii; test: Antifungal activity against Candida krusei E28 after 48 hrs by broth microdilution method; assay type: functional; details: E28, 48 h

O=[N+]([O-])c1cc(-c2nnn(Cc3ccc(Cl)cc3)n2)cc([N+](=O)[O-])c1
MIC [1]: > 500 µM
MIC [2]: 15.6 µM (≈ 5.63 µg/mL)
MIC [3]: > 500 µM
MIC [4]: > 500 µM
MIC [5]: 500 µM (≈ 180 µg/mL)
MIC [6]: > 500 µM
MIC99 [7]: 8 µM (≈ 2.89 µg/mL)
MIC [8]: 500 µM (≈ 180 µg/mL)
MIC [9]: 31.2 µM (≈ 11.3 µg/mL)
MIC [10]: > 500 µM
MIC [11]: > 500 µM
MIC99 [12]: 0.25 µM (≈ 0.0902 µg/mL)
MIC [13]: > 500 µM
MIC99 [14]: 8 µM (≈ 2.89 µg/mL)
MIC [15]: > 500 µM
MIC [16]: > 500 µM
MIC99 [17]: 0.5 µM (≈ 0.18 µg/mL)
MIC [18]: > 500 µM
MIC [19]: > 500 µM
MIC [20]: > 500 µM
MIC [21]: > 500 µM
MIC [22]: > 500 µM
MIC [23]: > 500 µM
MIC99 [24]: 0.25 µM (≈ 0.0902 µg/mL)
MIC [25]: > 500 µM
MIC [26]: 15.6 µM (≈ 5.63 µg/mL)
MIC [27]: > 500 µM
MIC [28]: 31.2 µM (≈ 11.3 µg/mL)
MIC [29]: > 500 µM
MIC99 [30]: 0.25 µM (≈ 0.0902 µg/mL)
MIC [31]: 250 µM (≈ 90.2 µg/mL)
MIC [32]: 250 µM (≈ 90.2 µg/mL)
MIC99 [33]: 1 µM (≈ 0.361 µg/mL)
MIC [34]: > 500 µM
MIC99 [35]: 2 µM (≈ 0.721 µg/mL)
MIC [36]: > 500 µM
MIC [37]: > 500 µM
MIC99 [38]: 1 µM (≈ 0.361 µg/mL)
MIC [39]: > 500 µM
MIC [40]: > 500 µM
IC50 [41]: 170 µM
MIC99 [42]: 2 µM (≈ 0.721 µg/mL)
MIC [43]: > 500 µM

O=[N+]([O-])c1cc(-c2nnn(CSc3nnnn3Cc3ccccc3)n2)cc([N+](=O)[O-])c1
MIC [1]: > 125 µM
MIC [2]: > 125 µM
MIC [3]: > 125 µM
MIC [4]: > 125 µM
MIC [5]: > 125 µM
MIC [6]: > 125 µM
MIC99 [7]: 16 µM (≈ 7.05 µg/mL)
MIC [8]: > 125 µM
MIC [9]: > 125 µM
MIC [10]: > 125 µM
MIC [11]: > 125 µM
MIC99 [12]: 0.125 µM (≈ 0.0551 µg/mL)
MIC [13]: > 125 µM
MIC99 [14]: 32 µM (≈ 14.1 µg/mL)
MIC [15]: > 125 µM
MIC [16]: > 125 µM
MIC99 [17]: 2 µM (≈ 0.881 µg/mL)
MIC [18]: > 125 µM
MIC [19]: > 125 µM
MIC [20]: > 125 µM
MIC [21]: > 125 µM
MIC [22]: > 125 µM
MIC [23]: > 125 µM
MIC99 [24]: 0.125 µM (≈ 0.0551 µg/mL)
MIC [25]: > 125 µM
MIC [26]: > 125 µM
MIC [27]: > 125 µM
MIC [28]: > 125 µM
MIC [29]: > 125 µM
MIC99 [30]: 2 µM (≈ 0.881 µg/mL)
MIC [31]: > 125 µM
MIC [32]: > 125 µM
MIC99 [33]: 4 µM (≈ 1.76 µg/mL)
MIC [34]: > 125 µM
MIC99 [35]: 4 µM (≈ 1.76 µg/mL)
MIC [36]: > 125 µM
MIC [37]: > 125 µM
MIC99 [38]: 4 µM (≈ 1.76 µg/mL)
MIC [39]: > 125 µM
MIC [40]: > 125 µM
MIC99 [42]: 4 µM (≈ 1.76 µg/mL)
MIC [43]: > 125 µM
